In US10004732B2 (Novartis AG, priority 2014, dated 2018):
pIC50: −log10 of the molar value. Where a name gives a salt, the structure may show the parent alone.

Tests used:
PI 3-kinase alpha [1] = molecular target: T1, PI 3-kinase alpha (Homo sapiens, UniProt P42336); experiment: Kinase Glo Luminescent Kinase Assay (Kglo), assay A; type: biochemical; details: read-out: Assay A PI3Kα IC50
Target sequence in this assay (P42336 whole entry): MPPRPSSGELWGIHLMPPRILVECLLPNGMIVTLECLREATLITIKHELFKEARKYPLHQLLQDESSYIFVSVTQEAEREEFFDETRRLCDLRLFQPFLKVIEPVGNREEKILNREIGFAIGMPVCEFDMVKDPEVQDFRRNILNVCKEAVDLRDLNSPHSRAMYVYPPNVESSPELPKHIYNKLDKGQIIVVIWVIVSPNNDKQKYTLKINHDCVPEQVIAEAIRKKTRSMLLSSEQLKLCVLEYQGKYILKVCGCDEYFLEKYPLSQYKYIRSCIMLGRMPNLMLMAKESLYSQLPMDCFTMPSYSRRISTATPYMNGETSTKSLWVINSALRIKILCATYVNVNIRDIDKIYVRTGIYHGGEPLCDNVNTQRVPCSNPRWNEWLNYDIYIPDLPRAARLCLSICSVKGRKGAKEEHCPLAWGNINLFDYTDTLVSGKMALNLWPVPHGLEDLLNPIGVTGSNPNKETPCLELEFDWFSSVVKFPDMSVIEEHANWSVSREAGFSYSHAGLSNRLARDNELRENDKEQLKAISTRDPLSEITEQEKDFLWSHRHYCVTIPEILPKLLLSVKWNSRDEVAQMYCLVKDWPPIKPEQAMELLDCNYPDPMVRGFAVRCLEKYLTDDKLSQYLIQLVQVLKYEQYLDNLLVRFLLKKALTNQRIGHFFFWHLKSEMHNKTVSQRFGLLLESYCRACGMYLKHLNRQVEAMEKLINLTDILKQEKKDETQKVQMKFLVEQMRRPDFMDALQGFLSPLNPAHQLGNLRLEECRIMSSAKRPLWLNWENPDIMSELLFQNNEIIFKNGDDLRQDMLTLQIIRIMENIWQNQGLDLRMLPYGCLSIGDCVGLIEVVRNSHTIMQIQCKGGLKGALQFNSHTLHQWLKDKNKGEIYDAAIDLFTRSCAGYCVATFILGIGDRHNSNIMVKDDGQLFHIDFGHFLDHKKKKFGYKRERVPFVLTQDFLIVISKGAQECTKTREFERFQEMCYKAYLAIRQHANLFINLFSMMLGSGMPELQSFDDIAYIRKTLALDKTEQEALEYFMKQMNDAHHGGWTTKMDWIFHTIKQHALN

PI 3-kinase beta [2] = molecular target: T2, PI 3-kinase beta (Homo sapiens, UniProt P42338); experiment: Kinase Glo Luminescent Kinase Assay (Kglo), assay B; type: biochemical; details: read-out: Assay B PI3Kβ IC50
Vps34 = Vps34 (Homo sapiens, UniProt Q8NEB9); experiment: Kinase Glo Luminescent Kinase Assay (Kglo), assay C; type: biochemical; details: read-out: Assay C VPS34 IC50
PI 4-kinase beta = PI 4-kinase beta (Homo sapiens, UniProt Q9UBF8); experiment: Kinase Glo Luminescent Kinase Assay (Kglo), assay D; type: biochemical; details: read-out: Assay D PI4Kβ IC50
PI 3-kinase gamma [3] = molecular target: T3, PI 3-kinase gamma (Homo sapiens, UniProt P48736); experiment: TR-FRET Adapta assay, assay E; type: biochemical; details: read-out: Assay E PI3Kγ IC50
mTOR = mTOR (Homo sapiens, UniProt P42345); experiment: Lanthascreen kinase binding assay, assay G; details: read-out: Assay G mTOR IC50
Method: Lanthascreen™ Kinase Binding Assay for mTOR (G)
Binding of an inhibitor to the kinase competes for binding with the tracer, resulting in a loss of FRET.
50 nL of compound dilutions were dispensed onto white 384-well small volume polystyrene plate.

PI 3-kinase alpha [4] = molecular target: T1, PI 3-kinase alpha; experiment: Cellular assay H1, p-Akt (S473) in Rat-1 cells, Surefire format; type: cell-based; details: non-asterisked data: version H1 (Surefire format), Rat-1 cells; read-out: Assay H PI3Kα IC50
Target sequence in this assay (P42336 whole entry): as above
Target sequence in this assay (Q63787 whole entry partner): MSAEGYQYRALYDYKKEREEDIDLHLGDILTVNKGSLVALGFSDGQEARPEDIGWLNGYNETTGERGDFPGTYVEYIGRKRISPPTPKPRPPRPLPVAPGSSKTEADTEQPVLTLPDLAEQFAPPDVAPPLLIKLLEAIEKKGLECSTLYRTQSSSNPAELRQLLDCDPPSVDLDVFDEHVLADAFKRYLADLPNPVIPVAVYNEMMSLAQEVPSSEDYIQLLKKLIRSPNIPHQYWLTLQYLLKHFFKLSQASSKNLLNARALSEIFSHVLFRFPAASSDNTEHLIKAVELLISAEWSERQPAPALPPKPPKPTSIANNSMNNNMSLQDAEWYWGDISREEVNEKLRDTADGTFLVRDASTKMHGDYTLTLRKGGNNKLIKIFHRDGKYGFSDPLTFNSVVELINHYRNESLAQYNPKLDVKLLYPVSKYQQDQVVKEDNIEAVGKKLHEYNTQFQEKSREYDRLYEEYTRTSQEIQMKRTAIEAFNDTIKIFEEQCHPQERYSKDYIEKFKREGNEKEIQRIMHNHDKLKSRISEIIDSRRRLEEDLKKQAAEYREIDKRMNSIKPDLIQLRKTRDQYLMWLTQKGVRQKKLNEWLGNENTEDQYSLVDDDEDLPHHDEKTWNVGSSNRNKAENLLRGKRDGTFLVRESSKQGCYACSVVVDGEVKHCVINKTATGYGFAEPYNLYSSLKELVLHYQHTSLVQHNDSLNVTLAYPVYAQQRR

PI 3-kinase beta [5] = molecular target: T2, PI 3-kinase beta; experiment: Cellular assay I1, p-Akt (S473) in Rat-1 cells, Surefire format; type: cell-based; details: non-asterisked data: version I1 (Surefire format), Rat-1 cells; read-out: Assay I PI3Kβ IC50
PI 3-kinase delta [6] = molecular target: T4, PI 3-kinase delta (Homo sapiens, UniProt O00329); experiment: Cellular assay J1, p-Akt (S473) in Rat-1 cells, Surefire format; type: cell-based; details: non-asterisked data: version J1 (Surefire format), Rat-1 cells; read-out: Assay J PI3Kδ IC50
Target sequence in this assay (O00329 whole entry): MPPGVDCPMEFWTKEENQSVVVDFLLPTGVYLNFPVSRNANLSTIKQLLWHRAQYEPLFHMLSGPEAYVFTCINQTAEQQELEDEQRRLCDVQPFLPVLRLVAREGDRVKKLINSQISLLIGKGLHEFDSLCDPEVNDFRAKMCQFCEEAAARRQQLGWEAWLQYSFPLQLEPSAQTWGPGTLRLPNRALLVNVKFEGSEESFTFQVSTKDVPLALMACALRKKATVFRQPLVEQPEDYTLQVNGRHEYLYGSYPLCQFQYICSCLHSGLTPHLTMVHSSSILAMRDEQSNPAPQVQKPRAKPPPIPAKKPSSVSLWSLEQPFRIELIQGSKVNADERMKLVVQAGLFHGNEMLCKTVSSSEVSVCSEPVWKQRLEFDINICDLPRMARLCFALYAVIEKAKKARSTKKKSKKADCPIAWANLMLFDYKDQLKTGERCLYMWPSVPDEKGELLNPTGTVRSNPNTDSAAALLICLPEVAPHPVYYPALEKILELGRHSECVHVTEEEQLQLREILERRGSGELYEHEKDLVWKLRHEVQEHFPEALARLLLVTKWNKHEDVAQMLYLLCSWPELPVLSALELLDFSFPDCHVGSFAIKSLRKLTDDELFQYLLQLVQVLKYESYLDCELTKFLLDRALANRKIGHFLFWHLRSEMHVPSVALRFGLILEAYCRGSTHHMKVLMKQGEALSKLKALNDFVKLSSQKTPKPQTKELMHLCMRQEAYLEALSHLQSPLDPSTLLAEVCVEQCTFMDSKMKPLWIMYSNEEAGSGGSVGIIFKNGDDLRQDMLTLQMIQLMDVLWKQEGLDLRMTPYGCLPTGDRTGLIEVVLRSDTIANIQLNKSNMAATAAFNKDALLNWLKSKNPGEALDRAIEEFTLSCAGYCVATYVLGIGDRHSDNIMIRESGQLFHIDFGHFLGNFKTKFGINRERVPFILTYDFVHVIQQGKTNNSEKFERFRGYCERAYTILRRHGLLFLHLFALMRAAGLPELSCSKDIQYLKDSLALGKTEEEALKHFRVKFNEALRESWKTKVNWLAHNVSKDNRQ
Target sequence in this assay (Q63787 whole entry partner): as the sequence (Q63787 whole entry partner) above

PI 3-kinase gamma [7] = molecular target: T3, PI 3-kinase gamma; experiment: Cellular U937 AKT assay K1 (MSD); type: cell-based; details: U937 cells, K1 format; read-out: Assay K1 PI3Kγ IC50
[8] = test system: IL-8-induced neutrophil shape change in human whole blood; experiment: Whole blood neutrophil shape change assay (L); type: cell-based; details: Homo sapiens, Neutrophil, IL-8, human whole blood, read-out: Assay L WBSC IC50
Method: Whole Blood Neutrophil Shape Change Assay (L)
IL-8 was made up to 2 μM stocks in 0.1% bovine serum albumin/PBS and stored at −80° C. On the day IL-8 was diluted in PBS (phosphate buffered saline) 10 minutes before use. IL-8 was used at final concentration of 2 nM and a concentration range from 0.003 to 200 nM for the donor dose response curve.
Assay fixative solution was prepared fresh each day from 10× concentrated CellFIX™ solution diluted 1:10 in sterile distilled water and then 1:4 with PBS. Assay fixative solution was kept on ice prior to use.
A 10× lysis buffer was prepared in advance by dissolving 20.75 g NH4Cl and 2.5 g KHCO3 in 250 ml sterile H2O. This 10× lysis buffer was filtered under sterile conditions and stored for up to two weeks at 4° C. On the day a 1× lysis solution was prepared with sterile distilled H2O and kept on ice prior to use.
The test compounds were prepared as 10 mM stock solutions in 100% DMSO and were stored at 4° C. Once in use for an assay 10 mM stock compounds were thawed and stored at RT protected from light. Compound dilutions were prepared fresh on the day. The first series of dilutions in 100% DMSO were done first thing in the morning. Only once blood had been collected and arrived in laboratory was the next set of dilutions into PBS carried out (1:10 PBS, 10% DMSO). This limited the exposure of diluted compound to plastic and made sure the exposure timing was consistent between assays.
Compound dilutions in 100% DMSO were prepared as described previously. Human whole blood was collected in K2 EDTA Vacutainers. Once blood was in the laboratory, compound dilutions into PBS were carried out as described previously and depicted in Table 1.
The outer wells of the deep well assay plate were filled with 1200 μl of sterile distilled H2O in an effort to limit edge effects (rows A1-H1, A1-A12, A12-H12).
An IL-8 dose response was determined for each blood donor examined, to monitor the donor response to IL-8. At this step in assay preparation for the IL-8 dose response samples 10 μl of PBS was added to designated wells. In addition the assay window without DMSO was also assessed each day. For such samples at this step in assay preparation 10 μl of PBS was added in the place of 10% DMSO.
Lids were placed on the 96 well plates and samples were incubated for 15 minutes at 37° C. in a water-bath.
Following the compound pre-incubation 10× final IL-8 was added to appropriate wells (10 μl of 20 nM working stock IL-8, final IL-8 concentration in blood=2 nM) and 10 μl of PBS was added to the un-stimulated controls. 10× final dose response range IL-8 was also added to designated wells (final concentration range on assay plate was 200 nM to 0.0005 nM, 1:5 serial dilution in PBS). The IL-8 and PBS were added to appropriate wells across all assay plates in the same sequence as the blood to compound addition. […] Samples were incubated for 5 minutes at 37° C. in a water-bath. Following the incubation sample plates were transferred to ice where 250 μl of chilled Assay Fixative Buffer was added promptly to all wells.
Samples were incubated on ice for 7 minutes (no mixing). […] Once added samples were mixed once and incubated on ice for 30 minutes to achieve uniform red blood cells lysis. After lysis, 200 μl of sample was transferred to a 96 well microplate on ice. […] Granulocytes were identified based on differential side scatter (SSC) and forward scatter (FSC) characteristics.

PI 3-kinase delta [9] = molecular target: T4, PI 3-kinase delta; experiment: TR-FRET Adapta assay, assay F; details: read-out: Assay F PI3Kδ IC50
Target sequence in this assay (O00329 whole entry): as the sequence (O00329 whole entry) above
Target sequence in this assay (P27986 461-568 partner): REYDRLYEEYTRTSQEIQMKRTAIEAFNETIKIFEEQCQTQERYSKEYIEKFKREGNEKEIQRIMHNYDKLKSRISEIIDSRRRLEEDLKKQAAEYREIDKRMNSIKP

[10] = Microsomal clearance assay (M); details: intrinsic clearance in rat liver microsomes
Method: The experiments were performed in 96-well glass plates at 37° C. on an automated Tecan EVO platform. Test compounds at a concentration of 10 mM in pure DMSO were diluted 1:1000 in water to 10 μM. […] Reactions were initiated by the addition of 150 μL of a cofactor solution containing 2 mM NADPH.

Sequence of PI 4-kinase beta (Q9UBF8 whole entry): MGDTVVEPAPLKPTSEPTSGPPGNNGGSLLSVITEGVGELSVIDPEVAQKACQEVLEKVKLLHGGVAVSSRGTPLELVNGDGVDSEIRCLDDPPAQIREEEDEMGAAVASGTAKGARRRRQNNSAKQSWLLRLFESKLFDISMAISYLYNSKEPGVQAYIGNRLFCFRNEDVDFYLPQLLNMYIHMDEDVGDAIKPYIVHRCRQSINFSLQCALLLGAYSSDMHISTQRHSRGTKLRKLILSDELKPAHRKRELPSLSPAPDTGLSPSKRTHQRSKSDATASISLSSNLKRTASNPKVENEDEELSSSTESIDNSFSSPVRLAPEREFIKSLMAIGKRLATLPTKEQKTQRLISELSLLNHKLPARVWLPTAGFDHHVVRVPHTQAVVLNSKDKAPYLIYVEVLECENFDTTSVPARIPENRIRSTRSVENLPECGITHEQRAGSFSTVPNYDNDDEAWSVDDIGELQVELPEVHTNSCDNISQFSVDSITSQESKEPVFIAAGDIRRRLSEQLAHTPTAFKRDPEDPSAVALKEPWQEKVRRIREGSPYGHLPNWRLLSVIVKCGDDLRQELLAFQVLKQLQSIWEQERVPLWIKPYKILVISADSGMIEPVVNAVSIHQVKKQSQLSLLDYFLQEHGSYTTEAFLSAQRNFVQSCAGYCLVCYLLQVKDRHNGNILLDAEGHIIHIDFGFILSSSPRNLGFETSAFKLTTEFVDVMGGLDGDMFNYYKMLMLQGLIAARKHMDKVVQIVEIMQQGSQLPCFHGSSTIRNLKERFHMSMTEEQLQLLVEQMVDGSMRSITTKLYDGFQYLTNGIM
T3 sequence (P48736 whole entry): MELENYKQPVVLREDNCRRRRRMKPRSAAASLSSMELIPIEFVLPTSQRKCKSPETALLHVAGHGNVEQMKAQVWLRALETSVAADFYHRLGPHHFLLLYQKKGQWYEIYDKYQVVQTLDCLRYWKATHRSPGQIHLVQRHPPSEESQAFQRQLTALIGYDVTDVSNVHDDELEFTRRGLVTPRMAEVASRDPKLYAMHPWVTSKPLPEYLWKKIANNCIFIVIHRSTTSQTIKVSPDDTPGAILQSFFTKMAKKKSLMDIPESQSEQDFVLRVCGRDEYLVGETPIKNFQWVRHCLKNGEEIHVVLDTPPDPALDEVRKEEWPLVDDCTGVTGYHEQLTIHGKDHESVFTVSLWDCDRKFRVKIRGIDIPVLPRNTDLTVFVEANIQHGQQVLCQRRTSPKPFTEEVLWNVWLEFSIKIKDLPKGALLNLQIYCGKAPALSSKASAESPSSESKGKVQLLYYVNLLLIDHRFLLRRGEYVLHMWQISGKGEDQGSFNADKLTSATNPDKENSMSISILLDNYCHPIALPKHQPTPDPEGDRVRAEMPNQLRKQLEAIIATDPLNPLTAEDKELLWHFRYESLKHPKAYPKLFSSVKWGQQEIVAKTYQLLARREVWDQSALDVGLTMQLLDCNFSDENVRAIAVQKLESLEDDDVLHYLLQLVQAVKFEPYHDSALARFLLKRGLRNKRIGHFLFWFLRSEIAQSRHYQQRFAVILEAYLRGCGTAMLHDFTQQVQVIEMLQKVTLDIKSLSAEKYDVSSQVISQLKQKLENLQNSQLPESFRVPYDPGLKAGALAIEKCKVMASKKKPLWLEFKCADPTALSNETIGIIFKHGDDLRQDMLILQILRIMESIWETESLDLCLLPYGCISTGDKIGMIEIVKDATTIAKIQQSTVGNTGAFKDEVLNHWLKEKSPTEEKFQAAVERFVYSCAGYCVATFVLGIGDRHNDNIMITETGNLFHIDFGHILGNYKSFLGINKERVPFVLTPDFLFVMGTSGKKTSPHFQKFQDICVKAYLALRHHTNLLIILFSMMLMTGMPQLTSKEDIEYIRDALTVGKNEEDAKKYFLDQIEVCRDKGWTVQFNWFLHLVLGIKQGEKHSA

Structure (SMILES)	pIC50 (PI 3-kinase alpha [1])	pIC50 (PI 3-kinase beta [2])	pIC50 (Vps34)	pIC50 (PI 4-kinase beta)	pIC50 (PI 3-kinase gamma [3])	pIC50 (mTOR)	pIC50 (PI 3-kinase alpha [4])	pIC50 (PI 3-kinase beta [5])	pIC50 (PI 3-kinase delta [6])	pIC50 (PI 3-kinase gamma [7])	pIC50 [8]	pIC50 (PI 3-kinase delta [9])	Assay M RLM CI(int) [10] [µL/min/mg]
Cc1ccc(S(=O)(=O)NCCC(C)(C)O)cc1-c1cnc(N)c(-n2cnc(C3CC3)n2)n1 [Example 26, 3-[5-Amino-6-(3-cyclopropyl-[1,2,4]triazol-1-yl)-pyrazin-2-yl]-N-(3-hydroxy-3-methyl-butyl)-4-methyl-benzenesulfonamide]	6.51	5.20	< 5.04	5.26	8.52	< 5.04	5.96	5.69	6.12	7.27	6.17	7.15	223
Cc1cc(-c2nc(-c3cc(S(=O)(=O)NCC4(O)COC4)ccc3C)cnc2N)ccn1 [Example 129.32, 3-(5-amino-6-(2-methylpyridin-4-yl)pyrazin-2-yl)-N-((3-hydroxyoxetan-3-yl)methyl)-4-methylbenzenesulfonamide]	5.70	5.15	< 5.04	< 5.04	7.41	< 5.04	< 5.00	< 5.00	< 5.00	6.10	5.70	5.74	18
Cc1cc(F)c(S(=O)(=O)NCCCO)cc1-c1cnc(N)c(-c2cnn(C)c2)n1 [Example 114, 5-(5-Amino-6-(1-methyl-1H-pyrazol-4-yl)pyrazin-2-yl)-2-fluoro-N-(3-hydroxypropyl)-4-methylbenzenesulfonamide]	6.54	5.43	5.11	5.23	7.36	< 5.04	5.27	< 5.52	5.10	6.75	6.30	5.92	17
Cc1ccc(S(=O)(=O)N[C@H]2CC[C@H](O)CC2)cc1-c1cnc(N)c(-n2cccn2)n1 [Example 103, 3-(5-Amino-6-(1H-pyrazol-1-yl)pyrazin-2-yl)-N-((1r,4r)-4-hydroxycyclohexyl)-4-methylbenzenesulfonamide]	6.41	5.73	< 5.04	5.56	7.89	< 5.04	5.65	5.49	6.07	7.55	6.29	6.82	29
Cc1cc(-c2nc(-c3cc(S(=O)(=O)NC4CCC(C)(O)CC4)ccc3C)cnc2N)ccn1 (stereo not drawn) [Example 129.19, 3-(5-amino-6-(2-methylpyridin-4-yl)pyrazin-2-yl)-N-(4-hydroxy-4-methylcyclohexyl)-4-methylbenzenesulfonamide]	6.48	5.29	< 5.04	5.14	7.18	5.52	5.07	< 5.00	5.36	6.60	5.46	6.33	21
Cc1ccc(S(=O)(=O)NCC2(CO)CCCCC2)cc1-c1cnc(N)c(-n2cncn2)n1 [Example 127.52]	6.85	6.47	< 5.00	5.51	8.05	5.44	6.01	5.20	5.96	7.28	5.75	6.48	>924
Cc1ccc(S(=O)(=O)NC[C@H]2C[C@@H](O)C2)cc1-c1cnc(N)c(-n2cncn2)n1 [Example 72, 3-(5-Amino-6-(1H-1,2,4-triazol-1-yl)pyrazin-2-yl)-N-(((1s,3s)-3-hydroxycyclobutyl)methyl)-4-methylbenzenesulfonamide]	6.24	5.57	< 5.04	< 5.04	7.47	< 5.04	5.51	5.22	5.58	6.53	6.14	6.41	41
CCN1CCC[C@@H]1CNS(=O)(=O)c1ccc(C)c(-c2cnc(N)c(-n3cncn3)n2)c1 [Example 127.12]	5.46	5.82	< 5.00	< 5.00	7.04	< 5.00	5.18	5.81	6.10	6.44	5.92	6.24	233
Cc1cc(-c2nc(-c3cc(S(=O)(=O)NCCC(C)(C)O)ccc3C)cnc2N)ccn1 [Example 119.28]	6.64	5.13	< 5.04	5.36	7.31	5.22	5.90	< 5.00	5.67	6.75	6.02	6.72	44
Cc1ccc(S(=O)(=O)N[C@H]2CC[C@H](O)CC2)cc1-c1cnc(N)c(-n2cncn2)n1 [Example 15, Trans-3-(5-Amino-6-(1H-1,2,4-triazol-1-yl)pyrazin-2-yl)-N-(4-hydroxycyclohexyl)-4-methylbenzenesulfonamide]	6.80	5.71	< 5.04	5.25	7.74	< 5.04	5.71	5.70	5.84	7.21	6.78	6.82	24
Cc1cnn(-c2nc(-c3cc(S(=O)(=O)N[C@H]4CC[C@H](O)CC4)ccc3C)cnc2N)c1 [Example 111, 3-(5-Amino-6-(4-methyl-1H-pyrazol-1-yl)pyrazin-2-yl)-N-((1r,4r)-4-hydroxycyclohexyl)-4-methylbenzenesulfonamide]	6.74	5.70	< 5.04	5.71	7.74	< 5.04	5.83	< 5.00	6.34	7.70	6.20	7.22	74
Cc1cn(-c2nc(-c3cc(S(=O)(=O)NCCCO)ccc3C)cnc2N)cn1 [Example 57, 3-(5-Amino-6-(4-methyl-1H-imidazol-1-yl)pyrazin-2-yl)-N-(3-hydroxypropyl)-4-methylbenzenesulfonamide]	6.49	5.19	< 5.04	< 5.04	7.24	< 5.04	< 5.00	< 5.00	< 5.00	6.48	5.90	6.24	17
Cc1ccc(S(=O)(=O)NCCC(C)(C)O)cc1-c1cnc(N)c(-c2cnn(Cc3ccccn3)c2)n1 [Example 119.37]	6.74	5.52	< 5.04	5.28	7.62	< 5.04	5.52	5.54	5.94	7.03	6.24	7.40	78
CCN1CCC[C@@H]1CNS(=O)(=O)c1ccc(C)c(-c2cnc(N)c(-c3cn(C)nc3C)n2)c1 [Example 27, 3-[5-Amino-6-(1,3-dimethyl-1H-pyrazol-4-yl)-pyrazin-2-yl]-N—((R)-1-ethyl-pyrrolidin-2-ylmethyl)-4-methyl-benzenesulfonamide hydrochloride]	6.68	6.06	< 5.00	5.18	7.33	5.13	< 5.00	< 5.00	5.99	7.24	6.25	7.15	60
Cc1ccc(S(=O)(=O)NCCC(C)(C)O)cc1-c1cnc(N)c(-c2cnn(C)c2)n1 [Example 119.16]	6.41	5.42	5.21	5.18	7.66	< 5.04	5.40	5.43	5.63	7.09	5.91	6.72	21
